The values that follow come from patent US20210078972A1, “QUINOLINE OR QUINAZOLINE COMPOUND AND APPLICATION THEREOF” (HAIHE BIOPHARMA CO., LTD., priority 2018, published 2021).

In assay [1] the test system is MV4-11 cells. In words: MV4-11 cell proliferation, CCK-8. It is filed as cell-based. As to conditions: Homo sapiens, 72 h, read-out: IC50 of inhibition of proliferation of MV4-11 cells. The protocol:
The inhibitory effects of the compounds on the proliferation of MV4-11 cells were detected by a CCK-8 cell counting kit (Dojindo). The specific steps are as follows: MV4-11 cells in the logarithmic phase were seeded into a 96-well culture plate at a suitable density for 90 μL per well. After overnight cultivation, the compounds at different concentrations were added to act for 72 hr, and a solvent control group was set (negative control). After 72 h of the compounds acting on the cells, the effects of the compounds on cell proliferation were detected using the CCK-8 cell counting kit (Dojindo). 10 μL of CCK-8 reagent was added to each well and the plate was placed in an incubator at 37° C. for 2-4 hours. After that, a full-wavelength microplate enzyme-labeling instrument SpectraMax 190 was used to read with a measurement wavelength of 450 nm.
The inhibition rate (%) of the compound on tumor cell growth was calculated by the following formula:
Inhibition rate (%)=(OD control well−OD administration well)/OD control well×100%
The IC50 values were obtained by regression with the four-parameter method using the software attached to the enzyme-labeling instrument.

Assay [2] has as its target T1, AXL kinase (Homo sapiens, UniProt P30530).
T1 construct: purchased eurofins 14-500
T1 sequence (P30530 473-894 limits assumed): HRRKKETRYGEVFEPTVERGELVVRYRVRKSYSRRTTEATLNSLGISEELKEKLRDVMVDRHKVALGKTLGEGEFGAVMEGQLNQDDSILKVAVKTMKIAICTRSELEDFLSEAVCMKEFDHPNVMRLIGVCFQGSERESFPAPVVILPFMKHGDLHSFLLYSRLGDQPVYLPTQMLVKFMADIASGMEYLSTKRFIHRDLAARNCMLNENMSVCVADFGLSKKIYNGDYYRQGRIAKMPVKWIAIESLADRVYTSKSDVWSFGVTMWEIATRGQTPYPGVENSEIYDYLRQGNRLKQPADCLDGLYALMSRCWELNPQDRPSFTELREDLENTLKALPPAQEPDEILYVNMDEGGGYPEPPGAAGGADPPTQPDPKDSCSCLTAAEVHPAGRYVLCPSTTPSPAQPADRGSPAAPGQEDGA
As to the kind of experiment: AXL kinase inhibition, Z'-LYTE FRET. Conditions: ATP 50 μM. It is filed as biochemical. The source says:
Detection of the activity of kinase: the inhibitory activities of the compounds against AXL kinase (eurofins, 14-500) were detected through a second-order reaction by the Z′-LYTE™ technology (detected by fluorescence, enzyme-coupled form, based on the difference in a sensitivity of phosphorylated and non-phosphorylated polypeptides to proteolytic cleavage), based on the principle of fluorescence resonance energy transfer (FRET), using Z′-LYTE™ FRET peptide substrate (Z′-LYTE™ Tyrosine 6 Peptide Substrate, Invitrogen, PV4122).
Enzymatic reaction: To a 384-well plate was added 5 μL of enzyme-substrate system (50 mM HEPES, pH 6.5, 0.01% BRU-35, 10 mM MgC2, 1 mM EGTA, 0.02% NaNA), and 5 nL of a compound (concentration gradient) was transferred thereto using an echo520 ultramicro-liquid pipetting system. After the plate was shaken at room temperature for 10-20 min, 25 nL of ATP (a final concentration of 50 μM) was transferred thereto using the echo520 ultramicro-liquid pipetting system. After shaking and well mixing, the mixture was centrifuged and reacted at 30° C. in the dark for 1.5 h.
The data analysis method is as follows:
Phosphorylation ratio=1−{(emission ratio×F100%−C100%)/[C0%−C100%+emission ratio×(F100%−F0%)]}×100;
Inhibition rate=100×(1−compound phosphorylation ratio/negative control phosphorylation ratio).
The IC50 values were calculated by GraphPad Prism software.

With `CC(C)(C)c1cc(NC(=O)Nc2ccc(-c3cn4c(n3)sc3cc(OCCN5CCOCC5)ccc34)cc2)no1` [AC220, reference compound], the IC50 in assay [1] is under 4 nM. `COc1cc2c(Oc3ccc(NC(=O)c4c(C)n(C)c5ccc(OC(F)(F)F)cc5c4=O)cc3F)ncnc2cc1OCCC(C)C` [TL-230, N-(3-fluoro-4-((7-(isopentyloxy)-6-methoxyquinazolin-4-yl)oxy)phenyl)-1,2-dimethyl-4-oxo-6-(trifluoromethoxy)-1,4-dihydroquinoline-3-carboxamide]: the IC50 in assay [2] turned out to be 59.4 nM. In turn, `COc1cc2c(Oc3ccc(NC(=O)c4c(C)n(C)c5ccc(OC(F)(F)F)cc5c4=O)cc3F)ncnc2cc1OCCN1CCCC1` [TL-231, N-(3-fluoro-4-((6-methoxy-7-(2-(pyrrolidin-1-yl)ethoxy)quinazolin-4-yl)oxy)phenyl)-1,2-dimethyl-4-oxo-6-(trifluoromethoxy)-1,4-dihydroquinoline-3-carboxamide] returned an IC50 in assay [2] of 2.3 nM.

The compound `COc1cc2c(Oc3ccc(NC(=O)c4c(C)n(C)c5ccc(OC(F)(F)F)cc5c4=O)cc3F)ncnc2cc1OCCN(C)C` [TL-233, N-(4-((7-(2-(dimethylamino)ethoxy)-6-methoxyquinazolin-4-yl)oxy)-3-fluorophenyl)-1,2-dimethyl-4-oxo-6-(trifluoromethoxy)-1,4-dihydroquinoline-3-carboxamide] gave an IC50 in assay [2] of 1.9 nM. As for `COc1cc2ncnc(Oc3ccc(NC(=O)c4c(C)n(C)c5ccc(OC(F)(F)F)cc5c4=O)cc3F)c2cc1OCCCN1CCOCC1` [TL-236, N-(3-fluoro-4-((7-methoxy-6-(3-morpholinopropoxy)quinazolin-4-yl)oxy)phenyl)-1,2-dim ethyl-4-oxo-6-(trifluoromethoxy)-1,4-dihydroquinoline-3-carboxamide], the IC50 in assay [2] worked out at 2.4 nM.

In turn, `COc1cc2c(Oc3ccc(NC(=O)c4c(C)n(C)c5ccc(OC(F)(F)F)cc5c4=O)cc3F)ncnc2cc1OCCCN1CCN(C)CC1` [TL-238] yielded an IC50 in assay [2] of 1.2 nM. Still for that read-out and setting: with `CCCOc1cc2ncnc(Oc3ccc(NC(=O)c4c(C)n(C)c5ccc(OC(F)(F)F)cc5c4=O)cc3F)c2cc1OC` [TL-240, N-(3-fluoro-4-((6-methoxy-7-propoxyquinazolin-4-yl)oxy)phenyl)-1,2-dimethyl-4-oxo-6-(trifluoromethoxy)-1,4-dihydroquinoline-3-carboxamide] the figure was 6.1 nM; with `CCOc1cc2ncnc(Oc3ccc(NC(=O)c4c(C)n(C)c5ccc(OC(F)(F)F)cc5c4=O)cc3F)c2cc1OC` [TL-241, N-(4-((7-ethoxy-6-methoxyquinazolin-4-yl)oxy)-3-fluorophenyl)-1,2-dimethyl-4-oxo-6-(trifluoromethoxy)-1,4-dihydroquinoline-3-carboxamide], 2.6 nM.
